The values that follow come from PubChem BioAssay (NCI).

Some test systems named below: M14 melanoma; SNB-19 CNS; RPMI-8226 leukemia; T-47D breast; SK-MEL-2 melanoma; MDA-MB-231 breast; MDA-MB-435; EKVX NSCLC; CAKI-1 renal; HCC-2998 colon.
Common to all, as to test: inhibition of tumour cell growth, NCI panel, 48 h

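Exposure lasted 48 hours, with cells grown in 96-well plates and compounds tested at five concentrations. GI50: concentration for 50% inhibition of growth. TGI: concentration producing complete growth inhibition.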

Turning to `Cc1sc(/N=C/C2=C(O)CC(C)(C)CC2=O)nc1-c1ccccc1`, the TGI with M14 melanoma, in the test on SNB-19 CNS, with RPMI-8226 leukemia, in the test with T-47D breast, in the test on SK-MEL-2 melanoma and in the test with MDA-MB-231 breast was greater than 100 µM each time. In addition, the TGI with MDA-MB-435, with EKVX NSCLC, in the test on CAKI-1 renal and in the test with HCC-2998 colon was greater than 100 µM each time.

On to `COC(=O)c1ccccc1C1CN=NC12Cc1ccc(C)cc1C2=O` (stereo not given), for which the TGI in the test with M14 melanoma, in the test with SNB-19 CNS, in the test on RPMI-8226 leukemia, in the test with T-47D breast, with SK-MEL-2 melanoma and in the test on MDA-MB-231 breast was greater than 100 µM each time. Further, the TGI with MDA-MB-435, in the test with EKVX NSCLC, in the test with CAKI-1 renal and in the test with HCC-2998 colon was greater than 100 µM in each case.

As for `CCOC(=O)C(C)c1nc2cc(F)c(F)cc2[nH]c1=O` (stereo not given), the TGI with M14 melanoma, in the test on SNB-19 CNS, in the test with RPMI-8226 leukemia, in the test with T-47D breast, with SK-MEL-2 melanoma and in the test on MDA-MB-231 breast was greater than 100 µM in each case. Also, the TGI in the test with MDA-MB-435, in the test on EKVX NSCLC, in the test on CAKI-1 renal and in the test on HCC-2998 colon was greater than 100 µM each time.

With `O=C(/C=C/c1ccc(-c2ccccc2)cc1)NCc1ccc(C(=O)NCCc2ccccc2)cc1`, the TGI in the test on M14 melanoma, in the test on SNB-19 CNS, in the test with RPMI-8226 leukemia, with T-47D breast, in the test with SK-MEL-2 melanoma and in the test on MDA-MB-231 breast was greater than 100 µM throughout. Also, the TGI with MDA-MB-435, with EKVX NSCLC, in the test on CAKI-1 renal and in the test on HCC-2998 colon was greater than 100 µM in each case.

In the case of `Cc1ccc(S(=O)(=O)N/N=C2\C=CC3(CC2)C(=O)N(I)c2ccccc23)cc1` (stereo not given), the TGI in the test with M14 melanoma, in the test on SNB-19 CNS, with RPMI-8226 leukemia, in the test on T-47D breast, in the test on SK-MEL-2 melanoma and in the test on MDA-MB-231 breast was greater than 100 µM each time. Further, the TGI in the test with MDA-MB-435, in the test on EKVX NSCLC, in the test on CAKI-1 renal and with HCC-2998 colon was greater than 100 µM each time.

For the compound `CC(=O)O[C@H]1[C@@H](N2CCOCC2)C[C@H]2[C@@H]3CC=C4C[C@@H](N5CCCC5)CC[C@]4(C)[C@H]3CC[C@@]21C`, the TGI in the test on M14 melanoma, in the test on SNB-19 CNS, with RPMI-8226 leukemia, with T-47D breast, in the test with SK-MEL-2 melanoma and with MDA-MB-231 breast was greater than 100 µM throughout. Also, the TGI with MDA-MB-435, with EKVX NSCLC, in the test with CAKI-1 renal and in the test on HCC-2998 colon was greater than 100 µM throughout.

With `Cc1ccc(/C=c2\cc3oc(=O)c4cccc(c4-3)c2=O)cc1`, the TGI in the test with M14 melanoma, in the test on SNB-19 CNS, in the test on RPMI-8226 leukemia, in the test with T-47D breast, in the test on SK-MEL-2 melanoma and in the test with MDA-MB-231 breast was greater than 100 µM each time. Further, the TGI in the test with MDA-MB-435, in the test on EKVX NSCLC, with CAKI-1 renal and in the test on HCC-2998 colon was greater than 100 µM in each case.

For the compound `O=C1NC(N2CCCC(CO)C2)=N/C1=C\c1cccs1` (stereo not given), the TGI with M14 melanoma, in the test with SNB-19 CNS, in the test on RPMI-8226 leukemia, in the test on T-47D breast, in the test with SK-MEL-2 melanoma and in the test on MDA-MB-231 breast was greater than 100 µM in each case. Besides, the TGI with MDA-MB-435, in the test on EKVX NSCLC, in the test on CAKI-1 renal and in the test on HCC-2998 colon was greater than 100 µM each time.

For `O=C(Nc1cccc(-n2ccc3c(NC(=O)c4ccccc4)ncnc32)c1)Nc1ccc(Cl)c(C(F)(F)F)c1`, the GI50 in the test with M14 melanoma is 1.75 µM; in the test on SNB-19 CNS, 4.41 µM; with RPMI-8226 leukemia, 1.02 µM; with T-47D breast, 2.61 µM; with SK-MEL-2 melanoma it was 1.18 µM; in the test on MDA-MB-231 breast, 2.06 µM. The GI50 was 1.44 µM in the test on MDA-MB-435, 2.71 µM in the test with EKVX NSCLC, 2.04 µM in the test with CAKI-1 renal and 4.2 µM in the test with HCC-2998 colon. For the same compound, the TGI is 5.98 µM in the test on M14 melanoma; 10.8 µM in the test on SNB-19 CNS; 2.8 µM in the test on RPMI-8226 leukemia; 9.85 µM in the test with T-47D breast; 3.64 µM with SK-MEL-2 melanoma; 7.94 µM in the test with MDA-MB-231 breast. The TGI with MDA-MB-435 was determined as 5.6 µM; in the test with EKVX NSCLC, 9.84 µM; in the test with CAKI-1 renal, 10.9 µM; with HCC-2998 colon, 14.9 µM.
